Experimental data taken from patent US20050063903A1, “Combined use of cruciferous indoles and chelators for the treatment of papilloma virus-related conditions” (priority 2003, published 2005).

Key:
[1] = cited from earlier work
[2] = log cumulative stability constant; cited from earlier work
[3] = log cumulative stability constant; cited from earlier work; remark: listed apart in the source
[4] = log cumulative stability constant; cited from earlier work; remark: listed apart in the source
tumor tissue = experiment: Ga-67 SPECT scan in patients with oropharyngeal squamous cell cancer; type: in vivo, human; details: 8 millicuries intravenous
Text: In order to reduce radiation-related side effects use of both conventional radiation and Cyberknife radiosurgery (Accuray, Sunnyvale, Calif.) were employed together with intravenous and oral DIM and intravenous Ga-67 isotope and Gallium nitrate. This combined approach allowed reduction of the total radiation dose from 7000 cGy to 3500 cGy. On the first treatment day the patient underwent Computerized Tomography (CT) with intravenous omnipaque to enhance 3 dimensional definition of the tumor mass. This was followed by a Ga-67 SPECT scan involving administration of 8 millicuries of Gallium-67 Citrate isotope (Cardinal Health, Denver, Colo.).
On the first treatment day the patient, weighing 50 kg, underwent Computerized Tomography (CT) with intravenous omnipaque to enhance the 3 dimensional definition of the recurrent tumor mass. This was followed by a Ga-67 SPECT scan involving administration of 8 millicuries of Gallium-67 isotope (Cardinal Health, Denver, Colo.).

[5] = tested on: papillomavirus altered cervical cancer cell lines; details: cell culture; cited from earlier work
CaSki cells = experiment: MTS mitochondrial function assay, loss of cell viability, 72 hour cultures; type: cell-based, human; details: for Pa Effect Alone: Pa 2.5 mM; for SY Effect Alone: SY 150 μM
Description: (§1) In vitro cell culture experiments were performed to investigate the induction of apoptosis by combinations of Diindolylmethane (DIM), Silybin (SY), Picolinic Acid (PA), Sodium Butyrate (BA), and Gallium Nitrate (Ga) in relevant cervical cancer cells. The cell lines CaSki (containing multiple copies of integrated HPV16 DNA), C33A (HPV negative with mutant p53), were utilized. Cells were maintained and assays for apoptosis induction performed as previously described (Chen D Z, Qi M, Auborn K J and Carter T H, Indole-3-carbinol and diindolylmethane induce apoptosis of human cervical cancer cells and in murine HPV 16-transgenic preneoplastic cervical epithelium. J Nutr. 2001 December;131(12):3294-302). Novel combinations of DIM and various Iron/Zinc chelators were tested to assess and document greater than additive (synergistic) apoptosis-related activity in controlled 72 hour cultures.
(§2) The primary assay for apoptosis-related loss of cell viability was the mitochondrial function assay [reduction of 3-(4,5-dimethylthiazol-2-yl)-5-(3-carboxymethoxyphenyl)-2-(4-sulfophenyl)-2H-tetrazolium (MTS)] using a MTS kit (Promega, Madison, Wis.). A minimum of 4 replicate wells per condition were studied and absorbance at […] of the solution in individual wells was determined with a multi-well plate reader. Data were analyzed by plotting the mean and SD of cell viability versus concentration of DIM, Iron/Zinc chelator or other growth inhibitors.
(§3) Using doses for each agent at or below the ID50 levels, synergistic, apoptosis-related, reductions in cell viability were documented for both combinations of DIM and Iron disrupting compounds and for combinations of DIM and Zinc disrupting compounds. Results showing percent reductions of cell viability using the MTS assay for individual agents, combined effects, and extent of synergism are summarized in the following tables and FIGS. 1-3.

C33A cells = experiment: as above; type: cell-based, human
Description: as §1, §2, §3

[6] = tested on: virus infected skin cells (HIV-1, HSV-2); details: cited from earlier work
Vaccinia virus = details: monkey kidney cells; cited from earlier work
cervical dysplasia = details: treated for 3 months; cited from earlier work

CC(=O)N(O)CCCCCNC(=O)CCC(=O)N(O)CCCCCNC(=O)CCC(=O)N(O)CCCCCN [DFO, Desferrioxamine]
Lipid Solubility [1]: Low
Logβ-Fe^III [2]: 30.5
Logβ-Ga^II [3]: 27.6
Logβ-Zn^II [4]: 11.1

O=C([O-])CC(O)(CC(=O)[O-])C(=O)[O-].[67Ga+3] [Gallium-67 Citrate]
Uptake of Gallium by the tumor tissue in the scan (tumor tissue): preferential uptake

c1ccc2c(Cc3c[nH]c4ccccc34)c[nH]c2c1 [DIM, 3,3′-diindolylmethane]
Concentration required for activity (markers of apoptosis) [5]: 50 µM
DIM Effect Alone (CaSki cells; DIM 50 μM, Table II): −26%
DIM Effect Alone (CaSki cells; DIM 75 μM, Table II): −46%
DIM Effect Alone (CaSki cells; DIM 75 uM, Table III): −19%
DIM Effect Alone (CaSki cells; DIM 75 μM, Table IV): −46%
DIM Alone 75 uM (CaSki cells; DIM 75 uM, Table V): −19%
DIM Effect Alone (CaSki cells; DIM 100 uM, Table III): −21%
DIM Effect Alone (C33A cells; DIM 25 μM, reduction of cell viability): −8%

O=C(O)c1ccccn1 [Picolinic acid, pyridine-2-carboxylic acid]
Lipid Solubility [1]: High
Logβ-Fe^III [2]: 12.8
Pa Effect Alone (CaSki cells; Table III line with DIM 75 uM): −13%
Pa Effect Alone (CaSki cells; Table III line with DIM 100 uM): −13%
Logβ-Zn^II [4]: 12.9
Concentration required in cell culture when used alone ([6]; U.S. Pat. No. 6,410,570): 3 mM
Concentration required for slowing of growth and diminished viability ([6]; virus infected skin cells): 3,000 micromolar

c1ccc(-c2ccccn2)nc1 [BIP, 2,2′-bypryidyl]
Concentrations shown to inhibit Vaccinia virus replication and ribonucleotide reductase (Vaccinia virus): 60 to 80 µM
Logβ-Fe^III [2]: 16.3
Logβ-Ga^II [3]: 7.7
Logβ-Zn^II [4]: 13.2

O=C(O)CN(CCN(CC(=O)O)CC(=O)O)CC(=O)O [EDTA, ethylenediaminetetraacetic acid]
Logβ-Fe^III [2]: 25.1
Logβ-Ga^II [3]: 21.0
Logβ-Zn^II [4]: 16.5

Cc1c(O)c(=O)ccn1C [L1, 1,2-Dimethyl-3-hydroxypyrid-4-one]
Lipid Solubility [1]: Moderate
Logβ-Fe^III [2]: 37.2
Logβ-Ga^II [3]: 32.6
Logβ-Zn^II [4]: 13.5

CCCC(=O)[O-].[Na+] [BU, butyric acid sodium salt]
BU Effect Alone (CaSki cells; BU 150 μM, Table IV): −15%

OCc1c[nH]c2ccccc12 [I3C, indole-3-carbinol]
Women with partial improvement (cervical dysplasia): about 50%

COc1cc(C2Oc3cc([C@H]4Oc5cc(O)cc(O)c5C(=O)[C@@H]4O)ccc3OC2CO)ccc1O (some centres unmarked) [Silybin, 3,5,7,-trihydroxy-2-[3-(4-hydroxy-3-methoxyphenil)-2-hydroxymethyl-1,4-benxodioxan-6-il]-chronan-4-one]
Logβ-Fe^III [2]: 41.5
SY Effect Alone (CaSki cells; Table II line with DIM 50 μM): −4%
SY Effect Alone (CaSki cells; Table II line with DIM 75 μM): −8%
Sy Alone 150 uM (CaSki cells; Sy 150 uM, Table V): −5%
SY Effect Alone (C33A cells; SY 150 μM): −54%
